Results on 17 compounds are retold here after patent US20250195521A1 (Revolution Medicines, Inc., priority 2020, published 2025).

What is called IC50 is the midpoint of a concentration-inhibition curve.

Molecules are shown by their SMILES. Where two headings read alike, the source gives them in different places.

Assay type in all cases: biochemical
The target of test [1] is KRAS G12S binding to BRAF RBD (Homo sapiens (Human), UniProt P01116+P62937, G12S). The experiment in a line: Ras-Raf disruption/FRET/MOA assay, KRAS G12S. Put shortly:
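First, test compounds in a 10-point 3-fold series (30 μM final top) were incubated for 3 hours at 25° C with nucleotide-loaded Ras, cyclophilin A and a BRAF RBD construct. Next, Eu anti-His and allophycocyanin anti-GST detection reagents were added for 1.5 hours. Finally, IC50s were derived from loss of TR-FRET signal against DMSO.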

The target in test [2] is KRAS G12V binding to BRAF RBD (Homo sapiens (Human), UniProt P01116+P62937, G12V). Description: Ras-Raf disruption/FRET/MOA assay, KRAS G12V. An excerpt:
(§1) Note—The following protocol describes a procedure for monitoring disruption of K-Ras G12C(GMP-PNP) binding to BRAF^RBD by a compound of the invention. This protocol may also be executed substituting other Ras proteins or nucleotides.
(§2) The purpose of this biochemical assay was to measure the ability of test compounds to facilitate ternary complex formation between a nucleotide-loaded K-Ras isoform and Cyclophilin A; the resulting ternary complex disrupts binding to a BRAF^RBD construct, inhibiting K-Ras signaling through a RAF effector. Data is reported as IC50 values.
(§3) Compound was present in plate wells as a 10-point 3-fold dilution series starting at a final concentration of 30 μM. After incubation at 25° C. for 3 hours, a mixture of Anti-His Eu—W1024 and anti-GST allophycocyanin was then added to assay sample wells at final concentrations of 10 nM and 50 nM, respectively, and the reaction incubated for an additional 1.5 hours. […] Compounds that facilitate disruption of a K-Ras: RAF complex were identified as those eliciting a decrease in the TR-FRET ratio relative to DMSO control wells.

Test [3] deals with KRAS G13C binding to BRAF RBD (Homo sapiens (Human), UniProt P01116+P62937, G13C). Description: Ras-Raf disruption/FRET/MOA assay, KRAS G13C.
Description: Disruption of B-Raf Ras-binding Domain (BRAF^RBD) Interaction with K-Ras by Compounds of the Invention (also called a FRET assay or an MOA assay)
as §1, §2
as §3, with “In assay buffer containing 25 mM HEPES pH 7.3, 0.002% Tween20, 0.1% BSA, 100 mM NaCl and 5 mM MgCl2, tagless Cyclophilin A, His6-K-Ras-GMPPNP, and GST-BRAF^RBD were combined in a 384-well assay plate at final concentrations of 25 μM, 12.5 nM and 50 nM, respectively. Compound was” for “Compound was”

KRAS G13C binding to BRAF RBD, sequence (P01116 other isoform, or with tags, fused parts or gaps G13C): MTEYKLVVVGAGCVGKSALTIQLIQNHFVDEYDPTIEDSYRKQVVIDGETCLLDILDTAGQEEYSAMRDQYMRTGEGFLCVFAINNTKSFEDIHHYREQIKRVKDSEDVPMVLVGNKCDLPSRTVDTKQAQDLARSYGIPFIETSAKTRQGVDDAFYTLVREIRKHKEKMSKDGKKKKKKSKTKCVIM
KRAS G13C binding to BRAF RBD, sequence (P62937 whole entry, the tested form may be a part): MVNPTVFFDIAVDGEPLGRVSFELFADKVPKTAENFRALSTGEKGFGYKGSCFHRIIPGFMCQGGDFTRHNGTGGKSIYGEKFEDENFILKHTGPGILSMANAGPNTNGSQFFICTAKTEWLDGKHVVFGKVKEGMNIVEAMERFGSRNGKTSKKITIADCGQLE
KRAS G12S binding to BRAF RBD, sequence (P01116 other isoform, or with tags, fused parts or gaps G12S): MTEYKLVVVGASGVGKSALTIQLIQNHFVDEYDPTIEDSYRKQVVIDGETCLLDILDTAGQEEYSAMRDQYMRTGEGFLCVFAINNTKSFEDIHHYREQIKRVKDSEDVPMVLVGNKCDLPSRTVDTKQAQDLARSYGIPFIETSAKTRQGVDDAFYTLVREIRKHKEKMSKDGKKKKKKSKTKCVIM
KRAS G12S binding to BRAF RBD, sequence (P62937 whole entry): as the sequence (P62937 whole entry, the tested form may be a part) above
KRAS G12V binding to BRAF RBD, sequence (P01116 other isoform, or with tags, fused parts or gaps G12V): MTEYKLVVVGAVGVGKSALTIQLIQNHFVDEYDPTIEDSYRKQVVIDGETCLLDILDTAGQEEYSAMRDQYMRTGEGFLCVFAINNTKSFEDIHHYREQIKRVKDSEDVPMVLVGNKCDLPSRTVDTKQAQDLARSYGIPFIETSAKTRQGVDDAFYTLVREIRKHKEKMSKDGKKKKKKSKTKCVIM
KRAS G12V binding to BRAF RBD, sequence (P62937 whole entry): as the sequence (P62937 whole entry, the tested form may be a part) above

For `CCn1c(-c2cccnc2[C@H](C)OC)c2c3cc(ccc31)-c1cc(O)cc(c1)C[C@H](NC(=O)C1CCC3C1C3(F)F)C(=O)N1CCC[C@H](N1)C(=O)OCC(C)(C)C2` (some centres unmarked) [Compound A181], the IC50 in test [1] fell in the range of 10 to 100 nM.

`CCn1c(-c2cccnc2[C@H](C)OC)c2c3cc(ccc31)-c1csc(n1)C[C@H](NC(=O)[C@H](C(C)C)N(C)C(=O)C1COC1)C(=O)N1CCC[C@H](N1)C(=O)OCC(C)(C)C2` [Compound A245]: the IC50 in test [2] lay in the range of 10 to 100 nM.

With `CCn1c(-c2cccnc2[C@H](C)OC)c2c3cc(ccc31)-c1cc(O)cc(c1)C[C@H](NC(=O)[C@H](C(C)C)N(C)C(=O)C1CC(=O)N(C3CC3)C1)C(=O)N1CCC[C@H](N1)C(=O)OCC(C)(C)C2` (some centres unmarked) [Compound A252], the IC50 in test [3] was < 10 nM.

As for `CCn1c(-c2cnccc2COC)c2c3cc(ccc31)-c1cc(O)cc(c1)C[C@H](NC(=O)[C@H](C(C)C)N(C)C(=O)N1CCNCC1)C(=O)N1CCC[C@H](N1)C(=O)OCC(C)(C)C2` [Compound A255], the half-inhibitory concentration (IC50) in test [3] was < 10 nM; in test [1] it was 10 to 100 nM.

As to `CCn1c(-c2cccnc2[C@H](C)OC)c2c3cc(ccc31)-c1cc(O)cc(c1)C[C@H](NC(=O)[C@@H](C(C)C)N(C)C(C)=O)C(=O)N1CCC[C@H](N1)C(=O)OCC(C)(C)C2` [Compound A256], the IC50 in test [1] is 10 to 100 nM.

For `CCn1c(-c2cccnc2[C@H](C)OC)c2c3cc(ccc31)-c1csc(n1)C[C@H](NC(=O)[C@H](C(C)C)N(C)C(=O)N1C[C@@H](C)N(C)C[C@@H]1C)C(=O)N1CCC[C@H](N1)C(=O)OCC(C)(C)C2` [Compound A292], the figures for the IC50 in test [3], in test [1] and in test [2] (read-out: KRAS G12V FRET IC50) were < 10 nM, 10 to 100 nM and 10 to 100 nM, respectively.

As for `CCn1c(-c2cccnc2[C@H](C)OC)c2c3cc(ccc31)-c1csc(n1)C[C@H](NC(=O)[C@H](C(C)C)N(C)C(=O)N1CC(N3CCC3)C1)C(=O)N1CCC[C@H](N1)C(=O)OCC(C)(C)C2` [Compound A295], the IC50 in test [1] and in test [2] (read-out: KRAS G12V FRET IC50) was 10 to 100 nM in each case.

For `CCn1c(-c2cccnc2[C@H](C)OC)c2c3cc(ccc31)-c1csc(n1)C[C@H](NC(=O)[C@H](C(C)C)N(C)C(=O)N1C[C@H](C)N(C)C[C@H]1C)C(=O)N1CCC[C@H](N1)C(=O)OCC(C)(C)C2` [Compound A300], the IC50 in test [1] and in test [2] (read-out: KRAS G12V FRET IC50) was 10 to 100 nM each time.

`CCn1c(-c2cccnc2[C@H](C)OC)c2c3cc(ccc31)-c1csc(n1)C[C@H](NC(=O)[C@H](C(C)C)N(C)C(=O)N1CC(N3CCOCC3)C1)C(=O)N1CCC[C@H](N1)C(=O)OCC(C)(C)C2` [Compound A338]: the figures for the concentration for half-maximal inhibition (IC50) in test [3], in test [1] and in test [2] (read-out: KRAS G12V FRET IC50) were < 10 nM, 10 to 100 nM and 10 to 100 nM, respectively.

In turn, `CCn1c(-c2cccnc2[C@H](C)OC)c2c3cc(ccc31)-c1csc(n1)C[C@H](NC(=O)C1CC1)C(=O)N1CCC[C@H](N1)C(=O)OCC(C)(C)C2` [Compound A367] yielded an IC50 in test [1] of 10 to 100 nM.

Turning to `CCn1c(-c2cccnc2[C@H](C)OC)c2c3cc(ccc31)-c1csc(n1)C[C@H](NC(=O)[C@H](C(C)C)N(C)C(=O)N1CC[C@]3(CCNC3=O)C1)C(=O)N1CCC[C@H](N1)C(=O)OCC(C)(C)C2` [Compound A479], the IC50 in test [1] and in test [2] (read-out: KRAS G12V FRET IC50) was 10 to 100 nM each time.

On to `CCn1c(-c2cccnc2[C@H](C)OC)c2c3cc(ccc31)-c1csc(n1)C[C@H](NC(=O)[C@H](C(C)C)N(C)C(=O)N1CCC[C@H](N(C)C)CC1)C(=O)N1CCC[C@H](N1)C(=O)OCC(C)(C)C2` [Compound A493], for which the IC50 in test [1] and in test [2] (read-out: KRAS G12V FRET IC50) was 10 to 100 nM each time.

For `CCn1c(-c2cccnc2[C@H](C)OC)c2c3cc(ccc31)-c1csc(n1)C[C@H](NC(=O)[C@H](C(C)C)N(C)C(=O)N(C)C1(C)COC1)C(=O)N1CCC[C@H](N1)C(=O)OCC(C)(C)C2` [Compound A527], the IC50 in test [1] and in test [2] (read-out: KRAS G12V FRET IC50) was 10 to 100 nM in each case.

For the compound `CCn1c(-c2cccnc2[C@H](C)OC)c2c3cc(ccc31)-c1csc(n1)C[C@H](NC(=O)[C@H](C(C)C)N(C)C(=O)N1CCN3C(=O)CN(C)C[C@H]3C1)C(=O)N1CCC[C@H](N1)C(=O)OCC(C)(C)C2` [Compound A537], the IC50 in test [1] and in test [2] (read-out: KRAS G12V FRET IC50) was 10 to 100 nM throughout.

In test [1], `CCn1c(-c2cccnc2[C@H](C)OC)c2c3cc(ccc31)-c1csc(n1)C[C@H](NC(=O)[C@H](C(C)C)N(C)C(=O)N1CCN(C(=O)[C@@H]3CCCN3C)CC1)C(=O)N1CCC[C@H](N1)C(=O)OCC(C)(C)C2` [Compound A596] returned an IC50 of 10 to 100 nM.

For `CCn1c(-c2cccnc2[C@H](C)OC)c2c3cc(ccc31)-c1csc(n1)[C@@H](OC)[C@H](NC(=O)[C@H](C(C)C)N(C)C(=O)N(C)C)C(=O)N1CCC[C@H](N1)C(=O)OCC(C)(C)C2` [Compound A598, (2S)—N-((6^3S,3S,4S,Z)-1^1-ethyl-3-methoxy-1^2-(2-((S)-1-methoxyethyl)pyridin-3-yl)-10,10-dimethyl-5,7-dioxo-6^1,6^2,6^3,6^4,6^5,6^6-hexahydro-1^1H-8-oxa-2 (4,2)-thiazola-1 (5,3)-indola-6 (1,3)-pyridazinacycloundecaphane-4-yl)-3-methyl-2-(1,3,3-trimethylureido) butanamide], the half-maximal inhibitory concentration (IC50) in test [1] was 10 to 100 nM.

For `CCn1c(-c2cccnc2[C@H](C)OC)c2c3cc(ccc31)-c1csc(n1)C[C@H](NC(=O)[C@H](C(C)C)N(C)C(=O)N1CC3(CCN(C)C3)C1)C(=O)N1CCC[C@H](N1)C(=O)OCC(C)(C)C2` [Compound A602], the concentration for half-maximal inhibition (IC50) in test [1] and in test [2] (read-out: KRAS G12V FRET IC50) was 10 to 100 nM throughout.
